What was measured:
[1] = test system: HCT-116 cells (colorectal carcinoma); experiment: MTT anti-proliferative assay, HCT-116; format: cell-based, human
Experimental: (§1) Anti-proliferative activities of the target compounds were assessed via the standard MTT method[38–40] against three cancer cell lines, namely, hepatocellular carcinoma (HepG-2), colorectal carcinoma (HCT-116), and human breast adenocarcinoma (MCF-7). Doxorubicin was used in this test as a positive control.
(§2) Anti-proliferative activity of the synthesised compounds was estimated using the MTT assay protocol[8]^,[38–40] as shown in Supplementary data.
(§3) 4.2.1. In vitro anti-proliferative activity against MCF-7, HepG-2 and HCT-116 The cells were cultured in RPMI-1640 medium supplemented with 10% fetal bovine serum (FBS), penicillin (100 unit /mL) and streptomycin sulphate (100µg/mL) at 37 °C in a 5% CO2 incubator.
(§4) Then, cells were dropped in 96-well plates at a density of 3-8 × 10^3 cells/well and incubated for two days in a 5% CO2 incubator at 37 °C. Then, the cells were treated with the synthesized compounds and the cell cultures were continued incubated for 24 h. However, Different concentrations of the compound under test (0.0, 5.0, 12.5, 25.0 and 50 mg/ml) were added to the cell monolayer. Then, (3-[4,5-dimethylthiazol-2-yl]- 2,5-diphenyltetrazolium bromide) MTT solution (20 µl, 5mg/mL) was added to each well and incubated for additional 4 h. The formed purple crystals of MTT-formazan were dissolved in 100 µl DMSO each well; the absorbance of each well was measured at 570 nm using a plate reader (EXL 800, USA). All of the compounds were tested three times. The relative cell viability in percentage was calculated. The results for IC50 values of the active compounds are […]
(§5) The data represented the mean of three independent experiments in triplicate and were expressed as means ± SD. […]
(§6) of the cells could survive. […]

[2] = test system: MCF-7 cells (human breast adenocarcinoma); experiment: MTT anti-proliferative assay, MCF-7; format: cell-based; conditions: Homo sapiens, MCF7, MTT, mean ± SD of three separate experiments; read-out: In vitro Cytotoxicity IC50 MCF-7
Experimental: as §1, §2, §3, §4, §5, §6

Calf thymus DNA = experiment: DNA intercalation assay (DNA/methyl green colorimetric assay); format: binding; conditions: three independent experiments
Experimental: as §5
4.2.2. DNA intercalation assay (DNA/methyl green colorimetric assay)
Affinity of some compounds for DNA-binding was examined in vitro using DNA/methyl green assay using doxorubicin as a positive control. In this test, a mixture of methyl green (20 mg) and Calf thymus DNA (10 mg) (Sigma– Aldrich) were suspended in 0.05 M TrisHCl buffer (100 mL, pH 7.5) containing 7.5 mM MgSO4. This mixture was stirred continuously for 24 h at 37 °C. Then, ethanolic solution of the test compounds was pitted into the wells of a 96-well microtiter tray at a concentration of 10, 100 and 1000 µM. The excess solvent was removed from each well under vacuum, with subsequent addition of 200 µL of the DNA/methyl green solution. The test samples were incubated for 24 h in dark at ambient temperature. After that, absorbance of each sample was determined at 642.5–645 nm. In this test, the methyl green dye reversibly binds to DNA to form persistent colored complex of DNA/methyl green. This color still stables at neutral pH. When the DNA intercalators were added, the methyl green was displaced from DNA with addition of H2O molecule to the dye resulting in formation of the colorless carbinol leading to a decrease in spectrophotometric absorbance. ΔA value (the difference between DNA/methyl green complex and free cabinol) provides the simplest means for detecting the DNA-binding affinity and relative binding strength. IC50′s were determined by linear regression of data plotted on a semi -log scale and the data were compared with doxorubicin as standard DNA intercalator . […]

[3] = test system: Solid Ehrlich Carcinoma (SEC); experiment: In vivo antitumor activity against Solid Ehrlich Carcinoma; set-up: species or system Swiss albino mice; conditions: SEC-bearing mice, 5 mg/kg BW I.P.
Experimental: To examine the in vivo anticancer activity of compound 9d, adult female Swiss albino mice (30 mice) inoculated with I.P. injection of Solid Ehrlich Carcinoma (SEC) tumour cell lines in a volume of 0.2 ml physiological saline contains 1 × 10^6 viable cells for 24 h.
These mice were randomly divided into four groups (7 mice/group). […] Bodyweight and survival were recorded daily until the 24th day in both treated and control groups. At the end of the experiment, the blood of each group was collected under light anaesthesia for the estimation of hematological and biochemical assays. The anaesthetised animals were then sacrificed to evaluate of the antitumor activity and to conduct hematological, biochemical, and histopathological assays, Figure 3.
Adult female Swiss albino mice purchased from Theodor Bilharzia Research Institute, Giza, Egypt, with an average bodyweight of (18–23) g were used. Mice were housed under constant conditions of 12 h light/dark cycle in a […], with free access to standard laboratory mice food and water. All procedures related to care and maintenance of the animals were performed according to the international guiding principles for animal research and approved by the Faculty of Science, Suez Canal University bioethics and animal ethics committee (Approval number REC-07–2021).
Solid Ehrlich carcinoma (SEC) was purchased from the National Cancer Institute (Cairo University, Egypt). The tumour cell line was proliferated in mice through serial intraperitoneal (I.P.) transplantation of a volume of 0.2 ml physiological saline contains 1 × 10^6 viable cells for 24 h. SEC cells were collected 7 days after I.P. implantation. The harvested cells were diluted with saline to obtain a concentration of 5 × 10^6 viable SEC cells/mL. A volume of 0.2 ml saline contains 1 × 10^6 SEC cells that were I.P. implanted into each normal mouse. SEC cells (1 × 10^6 tumour cells/mouse) were implanted subcutaneously into the right thigh of the hind limb.
The experimental animals were randomly divided into four groups. Group 1 served as the normal saline control (5 ml/kg B.Wt., I.P.). Group 2 served as the SEC control (1 × 10^6 cells/mouse). Group 3 served as the compound-treated group (5 mg/kg B.Wt., I.P.). […] Bodyweight and survival were recorded daily until the 24th day in both treated and control groups. At the end of the experiment, the blood of each group was collected under light anaesthesia to the estimate of hematological and biochemical assays. The anaesthetised animals were then sacrificed for evaluation of the antitumor activity and histopathological examination.
It includes tumour volume, weight, and tumour inhibition ratio (TIR%). Time interval measurements of tumour volume using digital Vernier calliper (Tricle Brand, Shanghai, China). Measure tumour length and width using a clipper and then calculate tumour volume using formulations V = (L × W × W)/2, where V is tumour volume, W is tumour width, L is tumour length. While TIR% was calculated according to the following equation Tumor volume (Control)−Tumor volume (treated)/Tumor volume (control)× 100.

- IC50 (Calf thymus DNA): 26.2 ± 1.14 µM
Structure (SMILES): CCCc1nnc2c3ccccc3c(NN=Cc3ccc([N+](=O)[O-])cc3)nn12 [Compound 9d, 6-[2–(4-Nitrobenzylidene)hydrazineyl]-3-propyl-[1,2, 4]triazolo[3,4-a]phthalazine]
- IC50 ([1]; Homo sapiens, HCT-116, MTT, mean ± SD of three separate experiments, read-out: In vitro Cytotoxicity IC50 HCT-116): 4.74 ± 0.15 µM
- times more active than doxorubicin, HCT-116 ([1]; ratio of IC50 values vs doxorubicin): 2.03 times
- IC50 [2]: 4.95 ± 0.1 µM
- tumour volume [3]: 19 mm^3
- reduction of the increase in solid tumour mass ([3]; compared to SEC control): 63.4%
- solid tumour mass ([3]; SEC control 194 mg): 71 mg
- tumour inhibition ratio (TIR) % ([3]; from tumour volume, compared to control): 64.5%

— article PMC8667898, “Topo II inhibition and DNA intercalation by new phthalazine-based derivatives as potent anticancer agents: design, synthesis, anti-proliferative, docking, and in vivo studies” (Journal of Enzyme Inhibition and Medicinal Chemistry, 2021)
